Measurements published in patent publication US6670363B1, “Azole compounds as therapeutic agents for fungal infections” (Ranbaxy Laboratories Limited, priority 2000, dated 2003).
Converted amounts (≈) assume the structure as drawn.

Legend:
Histoplasma capsulatum = type: cell-based
A. fumigatus s 1008 = assay: In vitro MIC, NCCLS M38P broth method (RPMI 1640/MOPS pH7), Aspergillus fumigatus; type: cell-based; settings: A. fumigatus strain 1008
Candida = assay: In vitro MIC, NCCLS M27A, Candida species; type: cell-based; set-up: MIC, Candida albicans 1.549 / MIC, Candida albicans Y-01-19 / MIC, C. krusei 766-1 / MIC, C. krusei Q. C / MIC, Candida tropicalis ATCC / MIC, C. glabrata 90030: unit not given beside the values; MIC, Candida albicans A 26 / MIC, C. parapsilosis Q. C.: unit not given here; settings: for MIC, C. glabrata 90030: C. glabrata strain 90030; for MIC, C. krusei 766-1: C. krusei strain 766-1; for MIC, C. krusei Q. C: C. krusei strain Q. C; for MIC, C. parapsilosis Q. C.: C. parapsilosis strain Q. C.; for MIC, Candida albicans 1.549: Candida albicans strain 1.549; for MIC, Candida albicans A 26: Candida albicans strain A 26; for MIC, Candida albicans Y-01-19: Candida albicans strain Y-01-19
Cryptococcus neoformans = assay: In vitro MIC, NCCLS M27A, Cryptococcus neoformans; type: cell-based; set-up: MIC, C. neoformans I: unit not given beside the values; MIC, C. neoformans M 106: unit not given here; settings: for MIC, C. neoformans I: C. neoformans strain I; for MIC, C. neoformans M 106: C. neoformans strain M 106

Row | Compound | melting point | MIC, H. capsulatum (Histoplasma capsulatum) | MIC, A. fumigatus 1008 (A. fumigatus s 1008) | MIC, C. glabrata 90030 (Candida) | MIC, C. krusei 766-1 (Candida) | MIC, C. krusei Q. C (Candida) | MIC, C. parapsilosis Q. C. (Candida) | MIC, Candida albicans 1.549 (Candida) | MIC, Candida albicans A 26 (Candida) | MIC, Candida albicans Y-01-19 (Candida) | MIC, Candida tropicalis ATCC (Candida) | MIC, C. neoformans I (Cryptococcus neoformans) | MIC, C. neoformans M 106 (Cryptococcus neoformans)
1 | Nc1ccc(N2CCN(c3ccc(-n4cnn(CC(O)(Cn5cncn5)c5ccc(F)cc5F)c4=O)cc3)CC2)c(N)c1 (centres unmarked) [Compound 38, 2-[2-(2,4-Difluorophenyl)-2-hydroxy-3-(1H-1,2,4-triazol-1-yl)propyl]-4-{4-[4-(2,4-diaminophenyl)-1-piperazinyl]phenyl}-3-(2H,4H)-1,2,4-triazolone] | 215 to 222 °C | > 16 µg/mL | >16 | >16 | >16 | >16 | >16 | >16 | >16 | >16 | >16 | >16 | >16
2 | O=c1n(-c2ccc(N3CCN(c4ccc(Cl)cc4)CC3)cc2)cnn1CC(O)(Cn1cncn1)c1ccc(F)cc1F (centres unmarked) [Compound 47, 2-[2-(2,4-Difluorophenyl)-2-hydroxy-3-(1H-1,2,4-triazol-1-yl)propyl]-4-{4-[4-(4-chlorophenyl)-1-piperazinyl]phenyl}-3-(2H,4H)-1,2,4-triazolone] | 207 to 208 °C | 0.05 µg/mL (≈ 0.0843 µM) | 3.12 | 3.12 | 1.56 | 1.56 | <0.02 | 0.20 | <0.02 | 0.20 | <0.02 | <0.02 | 0.40
3 | Cc1ccc(N2CCN(c3ccc(-n4cnn(CC(O)(Cn5cncn5)c5ccc(F)cc5F)c4=O)cc3)CC2)cc1C (centres unmarked) [Compound 56, 2-[2-(2,4-Difluorophenyl)-2-hydroxy-3-(1H-1,2,4-triazol-1-yl)propyl]-4-{4-[4-(3,4-dimethylphenyl)-1-piperazinyl]phenyl}-3-(2H,4H)-1,2,4-triazolone] | 136 to 137 °C | 0.004 µg/mL (≈ 0.00682 µM) | >16 | 0.25 | 1.00 | 0.25 | <0.03 | 0.06 | <0.03 | 0.03 | <0.03 | <0.03 | 0.03
4 | Cc1ccc(N2CCN(c3ccc(-n4cnn(CC(O)(Cn5cncn5)c5ccc(F)cc5F)c4=O)cc3)CC2)cc1Cl (centres unmarked) [Compound 49, 2-[2-(2,4-Difluorophenyl)-2-hydroxy-3-(1H-1,2,4-triazol-1-yl)propyl]-4-{4-[4-(3-chloro-4-methylphenyl)-1-piperazinyl]phenyl}-3-(2H,4H)-1,2,4-triazolone] | 189 to 201 °C | < 0.03 µg/mL | 4.00 | 0.25 | 0.25 | 0.06 | <0.03 | <0.03 | <0.03 | <0.03 | <0.03 | <0.03 | <0.03
5 | O=c1n(-c2ccc(N3CCN(c4ccc(F)c(F)c4)CC3)cc2)cnn1CC(O)(Cn1cncn1)c1ccc(F)cc1F (centres unmarked) [Compound 55, 2-[2-(2,4-Difluorophenyl)-2-hydroxy-3-(1H-1,2,4-triazol-1-yl)propyl]-4-{4-[4-(3,4-difluorophenyl)-1-piperazinyl]phenyl}-3-(2H,4H)-1,2,4-triazolone] | 117 to 118 °C | 0.004 µg/mL (≈ 0.00673 µM) | >16 | 0.25 | 1.00 | 0.12 | <0.03 | 0.03 | <0.03 | 0.03 | <0.03 | <0.03 | 0.02
6 | O=c1n(-c2ccc(N3CCN(c4ccc(F)cc4)CC3)cc2)cnn1CC(O)(Cn1cncn1)c1ccc(F)cc1F (centres unmarked) [Compound 43, 2-[2-(2,4-Difluorophenyl)-2-hydroxy-3-(1H-1,2,4-triazol-1-yl)propyl]-4-{4-[4-(4-fluorophenyl)-1-piperazinyl]phenyl}-3-(2H,4H)-1,2,4-triazolone] | 173 to 177 °C | < 0.02 µg/mL | >12.5 | 0.40 | 1.56 | 0.20 | <0.02 | <0.02 | <0.02 | 0.05 | 12.50 | 0.05 | 0.05
7 | O=c1n(-c2ccc(N3CCN(c4cccc(Cl)c4)CC3)cc2)cnn1CC(O)(Cn1cncn1)c1ccc(F)cc1F (centres unmarked) [Compound 57, 2-[2-(2,4-Difluorophenyl)-2-hydroxy-3-(1H-1,2,4-triazol-1-yl)propyl]-4-{4-[4-(3-chlorophenyl)-1-piperazinyl]phenyl}-3-(2H,4H)-1,2,4-triazolone] | 177 to 178 °C | 0.06 µg/mL (≈ 0.101 µM) | >16 | 0.25 | 0.50 | 0.25 | <0.03 | 0.25 | <0.03 | 0.12 | <0.03 | <0.03 | <0.03
8 | O=c1n(-c2ccc(N3CCN(c4ccc([N+](=O)[O-])cc4[N+](=O)[O-])CC3)cc2)cnn1CC(O)(Cn1cncn1)c1ccc(F)cc1F (centres unmarked) [Compound 40, 2-[2-(2,4-Difluorophenyl)-2-hydroxy-3-(1H-1,2,4-triazol-1-yl)propyl]-4-{4-[4-(2,4-dinitrophenyl)-1-piperazinyl]phenyl}-3-(2H,4H)-1,2,4-triazolone] | 120 to 123 °C | 0.05 µg/mL (≈ 0.0771 µM) | 1.56 | 0.80 | 6.25 | 1.56 | 0.05 | 0.40 | <0.02 | 0.40 | 1.56 | 0.05 | 0.20
9 | O=c1n(-c2ccc(N3CCN(c4cc(Cl)cc(Cl)c4)CC3)cc2)cnn1CC(O)(Cn1cncn1)c1ccc(F)cc1F (centres unmarked) [Compound 61, 2-[2-(2,4-Difluorophenyl)-2-hydroxy-3-(1H-1,2,4-triazol-1-yl)propyl]-4-{4-[4-(3,5-dichlorophenyl)-1-piperazinyl]phenyl}-3-(2H,4H)-1,2,4-triazolone] | 222 to 225 °C | < 0.03 µg/mL | >16 | 0.50 | 0.50 | 0.25 | <0.03 | 0.25 | <0.03 | 0.12 | <0.03 | <0.03 | <0.03
10 | Cc1ccc(Cl)cc1N1CCN(c2ccc(-n3cnn(CC(O)(Cn4cncn4)c4ccc(F)cc4F)c3=O)cc2)CC1 (centres unmarked) [Compound 48, 2-[2-(2,4-Difluorophenyl)-2-hydroxy-3-(1H-1,2,4-triazol-1-yl)propyl]-4-{4-[4-(5-chloro-2-methylphenyl)-1-piperazinyl]phenyl}-3-(2H,4H)-1,2,4-triazolone] | 82 to 87 °C | 0.25 µg/mL (≈ 0.412 µM) | >16 | 1.00 | 1.00 | 0.50 | 0.12 | 0.50 | <0.03 | 0.50 | <0.03 | <0.03 | 0.06
11 | COc1ccccc1N1CCN(c2ccc(-n3cnn(CC(O)(Cn4cncn4)c4ccc(F)cc4F)c3=O)cc2)CC1 (centres unmarked) [Compound 42, 2-[2-(2,4-Difluorophenyl)-2-hydroxy-3-(1H-1,2,4-triazol-1-yl)propyl]-4-{4-[4-(2-methoxyphenyl)-1-piperazinyl]phenyl}-3-(2H,4H)-1,2,4-triazolone] | 95 to 97 °C | 0.05 µg/mL (≈ 0.0849 µM) | >12.5 | 1.56 | 3.12 | 1.56 | <0.02 | 0.40 | 0.05 | 12.50 | 12.50 | 0.20 | 0.80
